In the experiment the target is T1, Aβ42 (Homo sapiens, UniProt P05067).
T1 construct: the amyloid β42 protein (Aβ42)
The experiment can be described thus: MSHTS quantification of aggregated Aβ with QD-Aβ40 in filtrate collected with Blocking 12. The following applies: Aβ42 and QD-Aβ40, 37° C. for 24 hours, SD value, read-out: RA concentration at which Aβ accounting for approximately 50% of the whole would not be aggregated. The format is biochemical. The protocol: Accordingly, whether or not it is possible to visualize aggregation of the amyloid β protein in such filtrate was examined. The quantum-dot-modified amyloid 40 protein (QD-Aβ40) was dissolved in the filtrate collected in Example 3, the solution was added to and mixed with the 1 mM Aβ42 solution, and the filtrate collected in Example 3 comprising 50 μM Aβ42 and 50 nM QD-Aβ40 was prepared. The 150 mM rosmarinic acid (RA) solution was diluted with the filtrate collected in Example 3 to five levels of concentration (3,000 μM, 600 μM, 120 μM, 24 μM, and 4.8 μM). Aβ42 and QD-A$40 were diluted with the filtrate collected in Example 3 to prepare a mixture of 50 μM Aβ42 and 50 nM QD-Aβ40. […] As a result, none of the solutions were sufficient in terms of sensitivity of SD values to perform quantitative analysis of aggregated Aβ (FIG. 4).
With the use of Blocking 12, accordingly, a 50 μM Aβ42 solution was prepared from the filtrate collected in the same manner as in Example 2, and QD-Aβ40 was diluted in the collected filtrate to adjust the concentration of QD-Aβ40 to 50 nM. […] These reaction solutions were incubated at 37° C. for 24 hours, aggregated Aβ was observed under a fluorescent microscope, and aggregated AD was quantified. […] It was found necessary that the sensitivity of the SD value be 60% or higher relative to that of PBS designated as 100% for quantification of aggregated AD.

T1 sequence (P05067 672-713 limits assumed): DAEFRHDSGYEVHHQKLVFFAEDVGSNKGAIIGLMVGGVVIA

As for `O=C(/C=C/c1ccc(O)c(O)c1)O[C@H](Cc1ccc(O)c(O)c1)C(=O)O` [RA, rosmarinic acid], the EC50 was ≤ 46 µM.

The values are drawn from patent US20240183865A1, “METHOD FOR MEASURING AGGREGATING PROTEINS, METHOD FOR VISUALIZING AGGREGATION, AND KIT USED THEREFOR” (KANEKA CORPORATION, priority 2021, published 2024).
